ChEMBL document CHEMBL3885881, “DrugMatrix”

Organism: Rattus norvegicus
Assay: DrugMatrix - Regimen: Daily Repeat
Assay type: toxicity, organism-based, Sprague-Dawley
Parameters: regimen Daily Repeat, gender Male, age 6-8 weeks
Settings: in vivo, sc, route subcutaneous, […]; for ABSOLUTE BASOPHIL / ABSOLUTE EOSINOPHIL / ABSOLUTE LYMPHOCYTE / ABSOLUTE MONOCYTE / BASOPHIL / EOSINOPHIL / ERYTHROCYTE COUNT / HEMATOCRIT / HEMOGLOBIN / LEUKOCYTE COUNT / LYMPHOCYTE / MEAN CORPUSCULAR HEMOGLOBIN / MEAN CORPUSCULAR HEMOGLOBIN CONCENTRATION / MEAN CORPUSCULAR VOLUME / MONOCYTE / NEUTROPHIL / NUCLEATED RED BLOOD CELLS / PLATELET COUNT: tissue Blood; for ALANINE AMINOTRANSFERASE / ALBUMIN / ASPARTATE AMINOTRANSFERASE / BLOOD UREA NITROGEN / CARBON DIOXIDE / CHLORIDE / CHOLESTEROL / CREATINE PHOSPHOKINASE / CREATININE / LACTATE DEHYDROGENASE / LIPASE / PHOSPHORUS / POTASSIUM / SODIUM / TOTAL BILIRUBIN / TOTAL PROTEIN / URIC ACID / GLUCOSE: tissue Plasma
[1] = 0 mg/kg, 72 h, dose level Control, time 3 day
[2] = 0 mg/kg, 120 h, dose level Control, time 5 day
[3] = 64 mg/kg, 72 h, dose level Low, time 3 day

Q: For `Nc1ccc(S(N)(=O)=O)cc1` [SULFANILAMIDE], which “ABSOLUTE BASOPHIL” value [1] is on record?
A: 0 CELLS/uL

Q: What about the “ABSOLUTE EOSINOPHIL” value [1] of the same compound?
A: 92.33 CELLS/uL

Q: What about the “ABSOLUTE LYMPHOCYTE” value [1] of the same compound?
A: 12247.5 CELLS/uL

Q: And the “ABSOLUTE MONOCYTE” value [1]?
A: 389.67 CELLS/uL

Q: What about the BASOPHIL [1] of the same compound?
A: 0%

Q: And the EOSINOPHIL [1]?
A: 0.67%

Q: What about the “ERYTHROCYTE COUNT” value [1] of the same compound?
A: 5.45 x10E6/uL

Q: And the HEMATOCRIT [1]?
A: 34.85%

Q: And the HEMOGLOBIN [1]?
A: 12.97 G/DL

Q: What about the “LEUKOCYTE COUNT” value [1] of the same compound?
A: 14.05 x10E3/uL

Q: What about the LYMPHOCYTE [1] of the same compound?
A: 87.33%

Q: And the “MEAN CORPUSCULAR HEMOGLOBIN” value [1]?
A: 23.78 pg

Q: What about the “MEAN CORPUSCULAR HEMOGLOBIN CONCENTRATION” value [1] of the same compound?
A: 37.22 G/DL

Q: And the “MEAN CORPUSCULAR VOLUME” value [1]?
A: 63.93 fL

Q: What about the MONOCYTE [1] of the same compound?
A: 2.67%

Q: What about the NEUTROPHIL [1] of the same compound?
A: 9.33%

Q: What about the “NUCLEATED RED BLOOD CELLS” value [1] of the same compound?
A: 0 /100WBC

Q: And the “PLATELET COUNT” value [1]?
A: 1174 x10E3/uL

Q: And the “ALANINE AMINOTRANSFERASE” value [1]?
A: 48.83 u/L

Q: What about the ALBUMIN [1] of the same compound?
A: 4.23 G/DL

Q: What about the “ASPARTATE AMINOTRANSFERASE” value [1] of the same compound?
A: 90 u/L

Q: What about the “BLOOD UREA NITROGEN” value [1] of the same compound?
A: 15.33 mg/dL

Q: And the “CARBON DIOXIDE” value [1]?
A: 23 mmol/L

Q: And the CHLORIDE [1]?
A: 103.5 MEQ/L

Q: And the CHOLESTEROL [1]?
A: 70.5 mg/dL

Q: What about the “CREATINE PHOSPHOKINASE” value [1] of the same compound?
A: 651.83 u/L

Q: What about the CREATININE [1] of the same compound?
A: 0.22 mg/dL

Q: And the “LACTATE DEHYDROGENASE” value [1]?
A: 165 u/L

Q: And the LIPASE [1]?
A: 9.33 u/L

Q: What about the PHOSPHORUS [1] of the same compound?
A: 12.03 mg/dL

Q: What about the POTASSIUM [1] of the same compound?
A: 6.17 MEQ/L

Q: What about the SODIUM [1] of the same compound?
A: 142.62 MEQ/L

Q: And the “TOTAL BILIRUBIN” value [1]?
A: 0.2 mg/dL

Q: What about the “TOTAL PROTEIN” value [1] of the same compound?
A: 5.73 G/DL

Q: And the “URIC ACID” value [1]?
A: 1.77 mg/dL

Q: And the “ABSOLUTE BASOPHIL” value [2]?
A: 0 CELLS/uL

Q: And the “ABSOLUTE EOSINOPHIL” value [2]?
A: 0 CELLS/uL

Q: And the “ABSOLUTE LYMPHOCYTE” value [2]?
A: 12736.67 CELLS/uL

Q: What about the “ABSOLUTE MONOCYTE” value [2] of the same compound?
A: 253.5 CELLS/uL

Q: And the BASOPHIL [2]?
A: 0%

Q: And the EOSINOPHIL [2]?
A: 0%

Q: And the “ERYTHROCYTE COUNT” value [2]?
A: 5.72 x10E6/uL

Q: What about the HEMATOCRIT [2] of the same compound?
A: 36.05%

Q: What about the HEMOGLOBIN [2] of the same compound?
A: 13.62 G/DL

Q: What about the “LEUKOCYTE COUNT” value [2] of the same compound?
A: 14.18 x10E3/uL

Q: And the LYMPHOCYTE [2]?
A: 89.33%

Q: What about the “MEAN CORPUSCULAR HEMOGLOBIN” value [2] of the same compound?
A: 23.83 pg

Q: What about the “MEAN CORPUSCULAR HEMOGLOBIN CONCENTRATION” value [2] of the same compound?
A: 37.8 G/DL

Q: What about the “MEAN CORPUSCULAR VOLUME” value [2] of the same compound?
A: 63.05 fL

Q: What about the MONOCYTE [2] of the same compound?
A: 1.83%

Q: What about the NEUTROPHIL [2] of the same compound?
A: 8.83%

Q: What about the “NUCLEATED RED BLOOD CELLS” value [2] of the same compound?
A: 0 /100WBC

Q: What about the “PLATELET COUNT” value [2] of the same compound?
A: 1322.17 x10E3/uL

Q: And the “ALANINE AMINOTRANSFERASE” value [2]?
A: 48.83 u/L

Q: What about the ALBUMIN [2] of the same compound?
A: 4.27 G/DL

Q: And the “ASPARTATE AMINOTRANSFERASE” value [2]?
A: 75.83 u/L

Q: And the “BLOOD UREA NITROGEN” value [2]?
A: 15.5 mg/dL

Q: What about the “CARBON DIOXIDE” value [2] of the same compound?
A: 30.5 mmol/L

Q: What about the CHLORIDE [2] of the same compound?
A: 102.33 MEQ/L

Q: And the CHOLESTEROL [2]?
A: 76.17 mg/dL

Q: And the “CREATINE PHOSPHOKINASE” value [2]?
A: 205.5 u/L

Q: And the CREATININE [2]?
A: 0.2 mg/dL

Q: And the GLUCOSE [2]?
A: 149.67 mg/dL

Q: What about the “LACTATE DEHYDROGENASE” value [2] of the same compound?
A: 124.5 u/L

Q: And the LIPASE [2]?
A: 10 u/L

Q: What about the PHOSPHORUS [2] of the same compound?
A: 10.93 mg/dL

Q: What about the POTASSIUM [2] of the same compound?
A: 6.59 MEQ/L

Q: And the SODIUM [2]?
A: 143.1 MEQ/L

Q: And the “TOTAL BILIRUBIN” value [2]?
A: 0.2 mg/dL

Q: What about the “TOTAL PROTEIN” value [2] of the same compound?
A: 6.05 G/DL

Q: And the “URIC ACID” value [2]?
A: 1.45 mg/dL

Q: And the “ABSOLUTE BASOPHIL” value [3]?
A: 0 CELLS/uL

Q: What about the “ABSOLUTE EOSINOPHIL” value [3] of the same compound?
A: 0 CELLS/uL

Q: And the “ABSOLUTE LYMPHOCYTE” value [3]?
A: 13215.67 CELLS/uL

Q: And the “ABSOLUTE MONOCYTE” value [3]?
A: 191 CELLS/uL

Q: What about the BASOPHIL [3] of the same compound?
A: 0%

Q: And the EOSINOPHIL [3]?
A: 0%

Q: What about the “ERYTHROCYTE COUNT” value [3] of the same compound?
A: 5.71 x10E6/uL

Q: And the HEMATOCRIT [3]?
A: 36.53%

Q: And the HEMOGLOBIN [3]?
A: 13.5 G/DL

Q: And the “LEUKOCYTE COUNT” value [3]?
A: 14.17 x10E3/uL

Q: What about the LYMPHOCYTE [3] of the same compound?
A: 93.33%

Q: What about the “MEAN CORPUSCULAR HEMOGLOBIN” value [3] of the same compound?
A: 23.67 pg

Q: What about the “MEAN CORPUSCULAR HEMOGLOBIN CONCENTRATION” value [3] of the same compound?
A: 36.97 G/DL

Q: And the “MEAN CORPUSCULAR VOLUME” value [3]?
A: 64.03 fL

Q: And the MONOCYTE [3]?
A: 1.33%

Q: What about the NEUTROPHIL [3] of the same compound?
A: 5.33%

Q: What about the “NUCLEATED RED BLOOD CELLS” value [3] of the same compound?
A: 0 /100WBC

Q: What about the “PLATELET COUNT” value [3] of the same compound?
A: 1225.33 x10E3/uL

Q: What about the “ALANINE AMINOTRANSFERASE” value [3] of the same compound?
A: 53 u/L

Q: What about the ALBUMIN [3] of the same compound?
A: 4.13 G/DL

Q: What about the “ASPARTATE AMINOTRANSFERASE” value [3] of the same compound?
A: 87 u/L

Q: What about the “BLOOD UREA NITROGEN” value [3] of the same compound?
A: 16.33 mg/dL

Q: What about the “CARBON DIOXIDE” value [3] of the same compound?
A: 25.33 mmol/L

Q: And the CHLORIDE [3]?
A: 103 MEQ/L

Q: What about the CHOLESTEROL [3] of the same compound?
A: 70.33 mg/dL

Q: And the “CREATINE PHOSPHOKINASE” value [3]?
A: 269 u/L

Q: And the CREATININE [3]?
A: 0.24 mg/dL

Q: What about the GLUCOSE [3] of the same compound?
A: 150.67 mg/dL

Q: What about the “LACTATE DEHYDROGENASE” value [3] of the same compound?
A: 408.33 u/L

Q: And the LIPASE [3]?
A: 10 u/L

Q: And the PHOSPHORUS [3]?
A: 13.03 mg/dL

Q: And the POTASSIUM [3]?
A: 6.94 MEQ/L

Q: And the SODIUM [3]?
A: 144.53 MEQ/L

Q: What about the “TOTAL BILIRUBIN” value [3] of the same compound?
A: 0.27 mg/dL

Q: What about the “TOTAL PROTEIN” value [3] of the same compound?
A: 5.7 G/DL

Q: What about the “URIC ACID” value [3] of the same compound?
A: 1.7 mg/dL
